{"source": "patent US7407984B2", "about": "“Tetraoxaspriro anti-malarials” (Okayama University, priority 2002, dated 2008)", "key": {"[1]": {"tested_on": "P. falciparum FCR-3 strain (ATCC30932)", "assay": "Growth inhibition screening test of P. falciparum (FCR-3 strain)", "assay_type": "cell-based", "conditions": "read-out: EC50 (M) P. falciparum FCR-3", "experimental": "(§1) A filter-sterilized RPMI1640 medium (pH 7.4) was added with human serum such that the serum made up 10% of the medium, and used in the experiment. P. falciparum were cultured in O2 at a concentration of 5%, CO2 at a concentration of 5% and N2 at a concentration of 90%, at a temperature of 36.5° C. Hematocrit value (ratio of volume of erythrocytes in erythrocyte suspension) was adjusted to be 5%, and initial infection rate of P. falciparum at the beginning of culture was adjusted to be 0.1%. A 24-well plate was used for culture and a medium was replaced everyday, and cultures were transferred at infection rate of 4%. A thin-layer smear was constructed and subjected to Giemsa staining or Diff-Qick staining, and followed by measurement under a microscope (oil immersion, 1000×), and then infection rate of P. falciparum was calculated according to the following formula. Infection rate of P. falciparum (%)={(number of infected erythrocytes)/(total number of erythrocytes)}×100 […]\n(§2) Cultured erythrocytes infected with P. falciparum were gathered by centrifugation and washed with a medium containing serum, then noninfected erythrocytes were added, and initial infection rate was adjusted to be 0.3%. Hematocrit value in this case was 3%. […] These samples were dissolved into sterilized water, dimethylformamide (DMF) or dimethylsulfoxide (DMSO), and sample solutions at prescribed concentration were prepared. 5 to 10 μl each of the sample solutions was added to a 24-well culture plate. For each sample, 2 to 3 experiments were conducted. In addition, for control, sterilized water, DMF or DMSO was added by 10 μl/well. […] The culture plate was put into a CO2—O2—N2 (5%, 5%, 90%) incubator and culture was conducted for 72 hours, then a thin-layer smear was constructed for each well, Giemsa staining or Diff-Qick staining was conducted, followed by measurement under a microscope (oil immersion, 1000×), and then infection rates of P. falciparum in a group supplemented with a reagent and in controls were calculated. The growth rate was calculated according to the following formula based on the infection rate of P. falciparum as calculated above. Growth rate (%)={([b]−[a])/([c]−[a])}×100 […]\n(§3) a: initial infection rate b: infection rate when sample solution added c: infection rate of a control\n(§4) EC50 is a value expressed by molar concentration: when growth rate of control wherein sample solution is not added to a medium of P. falciparum is defined as 100%, EC50 indicates a concentration of a sample wherein infection rate of P. falciparum in control is inhibited by 50% due to the addition of sample solution."}, "[2]": {"tested_on": "murine malaria parasites (P. berghei NK65 strain)", "assay": "Parasite suppression test using mice infected with murine malaria parasite (4-day suppressive test)", "assay_type": "in vivo", "conditions": "for ED50 / cure of infected mice / ED90: mice infected with P. berghei NK65; for ED50 / ED90: once a day for 4 days, orally or intraperitoneally in olive oil; for ED50: 50% of parasites suppressed; for cure of infected mice: N251 and N89: with 50 mg/kg; for ED90: 90% of parasites suppressed"}, "[3]": {"tested_on": "P. falciparum versus mouse FM3A cells", "assay": "Assessment of drug efficacy (chemotherapeutic coefficient, selective toxicity against P. falciparum)", "assay_type": "cell-based", "conditions": "IC50 for mouse FM3A cells ÷ EC50 for P. falciparum (values fit FCR-3)", "experimental": "Evaluation of antimalarial activity of samples was conducted on the basis of chemotherapeutic coefficient used as an index of selective toxicity against P. falciparum. Chemotherapeutic coefficient was calculated by the following formula as a ratio of EC50 value of each sample used for P. falciparum to IC50 value of each sample used for mouse FM3A cells, and drug efficacy was assessed based on the calculated values.\nChemotherapeutic coefficient=(IC50 value of the sample for mouse […] cells)÷(EC50 value of the sample for P. falciparum)"}, "[4]": {"assay": "physchem", "from_the_text": "As to 6-(1,2,6,7-tetraoxaspiro[7.11]nonadecy-4-yl)hexane-1-ole (N251), 5-(1,2,6,7-tetraoxaspiro[7.11]nonadecy-4-yl)pentane-1-carboxylic acid (N251-1), succinic acid mono-[6-(1,2,6,7-tetraoxaspiro[7.11]nonadecy-4-yl)hexyl]ester (N251-2), all obtained in Example 9, and 1,2,6,7-tetraoxaspiro[7.11]nonadecane (N89), artemisinin, artesunate (trade name: Guilin No. 2, Pharmaceutical Factory, Guangxi, China) as comparative examples, solubility to 5% of sodium bicarbonate water and dimethylsulfoxide (DMSO) was measured."}, "[5]": {"tested_on": "mouse breast cancer-derived FM3A cells (F28-7 strain)", "assay": "Growth inhibition test of mouse FM3A cells", "assay_type": "cell-based", "conditions": "read-out: IC50 (M) Cancer cells of mice FM3A", "experimental": "An F28-7 strain, a wild-type strain of mouse breast cancer-derived FM3A cells, was used. Immobilized fetal bovine serum was added to an ES medium such that the serum made up 2% of the medium, and culture was conducted in CO2 at a concentration of 5%, and at 37° C. […] Cells which had been precultured and entered to logarithmic growth phase were diluted to be 5×10^4 cells/ml in the medium. A sample prepared at the time of the measurement of antimalarial activity of P. falciparum was used. […] For each test sample, 2 to 3 experiments were conducted, and wells added with 10 μl each of sterilized water, DMF and DMSO were tested at the same time as controls. Next, a prepared suspension of cultured cells was added, by 990 to 995 μl each, and when medium and the like were added, the final concentration of test samples became 1×10^−4 to 1×10^−6M. By pipetting gently, these substances were uniformly suspended in media.\nBased on the counted number of cells, growth rate was calculated by the following formula. Growth rate (%)={([C]−[A])/([B]−[A])}×100\nA: the number of cells at the beginning\nB: the number of cells in a control after 48 hours\nC: the number of cells 48 hours after sample addition\nBased on the calculated growth rate, IC50, cell growth inhibitory concentration, was calculated, and cytotoxicity of samples was evaluated as cell growth inhibitory activity."}, "[6]": {"tested_on": "chloroquine-resistant malaria parasite of P. falciparum K-1 strain", "assay": "Growth inhibition screening test of chloroquine-resistant P. falciparum (K-1 strain)", "assay_type": "cell-based", "conditions": "read-out: EC50 (M) Chloroquine-resistant P. falciparum K1", "experimental": "as §1, §2, §3, §4"}, "[7]": {"conditions": "Plasmodium falciparum, FCR-3 strain, 72 hours culture, infection rate by Giemsa or Diff-Qick staining"}, "[8]": {"conditions": "Plasmodium berghei, 96 h, read-out: ED50"}, "[9]": {"conditions": "Mus musculus, FM3A cells, 48 hours culture, cell count, cytotoxicity"}, "[10]": {"conditions": "Plasmodium falciparum, K1 chloroquine-resistant strain, 72 hours culture"}}, "note": "Like-named read-outs stand apart in the source and are kept apart here.", "data": [{"smiles": "C[C@@H]1CC[C@H]2[C@@H](C)C(=O)O[C@@H]3O[C@@]4(C)CC[C@@H]1[C@]32OO4", "note": "[Artemisinin, artemisinin]", "values": [{"measurement": "EC50", "setting": "[1]; [7]", "value": "1e-08", "unit": "M"}, {"measurement": "ED50", "setting": "[2]; [8]", "value": 6, "unit": "mg/kg"}, {"measurement": "cure of infected mice", "setting": "[2]", "value": "Not cured"}, {"measurement": "ED90", "setting": "[2]", "value": 10.3, "unit": "mg/kg"}, {"measurement": "IC50/EC50 Chemotherapeutic coefficient", "setting": "[3]", "value": 1000}, {"measurement": "solubility to DMSO", "setting": "[4]", "value": "insoluble"}, {"measurement": "IC50", "setting": "[5]; [9]", "value": "1e-05", "unit": "M"}, {"measurement": "EC50", "setting": "[6]; [10]", "value": "1.3e-08", "unit": "M"}]}, {"smiles": "CCN(CC)CCCC(C)Nc1ccnc2cc(Cl)ccc12", "note": "(centres unmarked) [Chloroquine, chloroquine]", "values": [{"measurement": "EC50", "setting": "[1]; Plasmodium falciparum, 72 h", "value": "1.8e-08", "unit": "M"}, {"measurement": "IC50", "setting": "[5]; Mus musculus, FM3A, 48 h", "value": "3.2e-05", "unit": "M"}, {"measurement": "EC50", "setting": "[6]; Plasmodium falciparum, K1, 72 h", "value": "1.3e-07", "unit": "M"}]}, {"smiles": "C1CCCCCC2(CCCCC1)OOCCCOO2", "note": "[N89, 1,2,6,7-tetraoxaspiro[7.11]nonadecane]", "values": [{"measurement": "EC50", "setting": "[1]; [7]", "value": "2.5e-08", "unit": "M"}, {"measurement": "ED50", "setting": "[2]; [8]", "value": 12, "unit": "mg/kg"}, {"measurement": "cure of infected mice", "setting": "[2]", "value": "All cured"}, {"measurement": "ED90", "setting": "[2]", "value": 20, "unit": "mg/kg"}, {"measurement": "IC50/EC50 Chemotherapeutic coefficient", "setting": "[3]", "value": 328}, {"measurement": "solubility to DMSO", "setting": "[4]", "value": "insoluble"}, {"measurement": "IC50", "setting": "[5]; [9]", "value": "8.2e-06", "unit": "M"}, {"measurement": "EC50", "setting": "[6]; [10]", "value": "2.6e-08", "unit": "M"}]}, {"smiles": "OCCCCCCC1COOC2(CCCCCCCCCCC2)OOC1", "note": "[N251, 6-(1,2,6,7-tetraoxaspiro[7.11]nonadecy-4-yl)hexane-1-ole]", "values": [{"measurement": "EC50", "setting": "[1]; FCR-3 strain, 72 hours culture, infection rate by Giemsa or Diff-Qick staining", "value": "2.3e-08", "unit": "M"}, {"measurement": "ED50 (mg/kg) on N89 basis", "setting": "[2]; ED50 of N251 converted to N89 basis (molar comparison)", "value": "[<7 on N89 basis] mg/kg"}, {"measurement": "ED90 (mg/kg) on N89 basis", "setting": "[2]; ED90 of N251 converted to N89 basis (molar comparison)", "value": "[13 on N89 basis] mg/kg"}, {"measurement": "cure of infected mice", "setting": "[2]", "value": "All cured"}, {"measurement": "ED50", "setting": "[2]", "value": "<10", "unit": "mg/kg"}, {"measurement": "ED90", "setting": "[2]", "value": 18, "unit": "mg/kg"}, {"measurement": "IC50/EC50 Chemotherapeutic coefficient", "setting": "[3]", "value": 348}, {"measurement": "solubility to DMSO", "setting": "[4]", "value": "insoluble"}, {"measurement": "IC50", "setting": "[5]; FM3A cells, 48 hours culture, cell count, cytotoxicity", "value": "8e-06", "unit": "M"}, {"measurement": "EC50", "setting": "[6]; K1 chloroquine-resistant strain, 72 hours culture", "value": "2e-08", "unit": "M"}]}, {"smiles": "O=C(O)CCCCCC1COOC2(CCCCCCCCCCC2)OOC1", "note": "[N251-1, 5-(1,2,6,7-tetraoxaspiro[7.11]nonadecy-4-yl)pentane-1-carboxylic acid]", "values": [{"measurement": "solubility to 5% of sodium bicarbonate water", "setting": "[4]; 5% of sodium bicarbonate water", "value": 50, "unit": "mg/mL"}]}, {"smiles": "O=C(O)CCC(=O)OCCCCCCC1COOC2(CCCCCCCCCCC2)OOC1", "note": "[N251-2, succinic acid mono-[6-(1,2,6,7-tetraoxaspiro[7.11]nonadecy-4-yl)hexyl]ester]", "values": [{"measurement": "solubility to 5% of sodium bicarbonate water", "setting": "[4]", "value": 100, "unit": "mg/mL"}]}, {"smiles": "C[C@H]1[C@H](OC(=O)CCC(=O)O)O[C@@H]2O[C@@]3(C)CC[C@H]4[C@H](C)CC[C@@H]1[C@@]24OO3", "note": "[artesunate]", "values": [{"measurement": "solubility", "setting": "[4]; aqueous buffer", "value": 100, "unit": "mg/mL"}]}]}
